Read-outs that look alike come from different tables or passages of the source. Each block holds one molecule with its values, some of them ahead of it.
Legend:
HCC1569 = assay: Cell growth inhibition assay, breast tumor cell line (Cell Titer Glo); format: cell-based; conditions: Homo sapiens, 72 h, HCC1569 (HER2−), 3 days
Method: (§1) Human tumor cell lines from hepatocellular carcinoma (HCC), C3A, Hep3B, HepG2, PLC/PRF/5, SNU182, SNU387, SNU398, SNU423, SNU449 and SNU475 were purchased from the ATCC. Human breast tumor cell lines, HCC2218, HCC1419, BT-474, SK-BR-3, UACC893, JIMT-1, MDA-MB-361, HCC202, MDA-MB-175-VII, HCC1569, HCC1937, HCC38, MDA-MB-157, HCC1954, HCC1500, BT483, KPL-1, SUM225 and ZR-75-1 from ATCC, SUM52 and SUM190 from Asterand, PLC (Detroit Mich.), were cultured in RPMI 1640 medium containing 10% FBS; SKBR3-W13 and BT-474-J4 cultured in RPMI 1640 medium containing 10% FBS and 1 μM lapatinib; KPL4 line was kindly provided by Dr Junichi Kurebayashi (Kawasaki Medical School, Okayama, Japan) and cultured in DMEM containing 5% FBS. JIMT-1 from European Collection of Cell Cultures (UK), is a line derived from a patient clinically resistant to trastuzumab (Herceptin®). SK-BR-3-W13 is a single cell clone isolated by a cloning cylinder after a single treatment of SK-BR-3 cells with 0.5 μM lapatinib. BT-474-J4 is a single cell clone derived from a pool of BT-474 cells that were selected to grow in lapatinib to a concentration of 3 μM.
(§2) Cells were seeded in a 96-well tissue culture plate (NUNC 136102) of RPMI medium containing 10% FBS at 500-2,000 cells per well. Approximately 24 hours after plating, cells were exposed to ten, two-fold or three-fold serial dilutions of either Compound A or B or the combination of the two agents at a 2:1 molar ratio (Compounds A and B respectively). In some cases, cells were grown in RPMI media containing 10% FBS and in the presence or absence of 2 ng/mL hepatocyte growth factor (HGF). Cells were incubated in the presence of compounds for 3 days. ATP levels were determined by adding Cell Titer Glo® (Promega) according to the manufacturer's protocol. Briefly, Cell Titer Glo® was added to each plate, incubated for 20 minutes then luminescent signal was read on the SpectraMax L plate reader with a 0.5 sec integration time. All assays were run at least in duplicate.
(§3) Inhibition of cell growth was estimated after treatment with compound or combination of compounds for three days and comparing the signal to cells treated with vehicle (DMSO). Cell growth was calculated relative to vehicle (DMSO) treated control wells. Concentration of compound that inhibits 50% of control cell growth (IC50) was back-interpolated when y=50% of DMSO treated control wells using nonlinear regression with the equation: […]
(§4) where A is the minimum response (ymin), B is the maximum response (Ymax), C is the inflection point of the curve (EC50) and D is the Hill coefficient.
(§5) Combination effects on potency were evaluated using the Combination Index (CI) and Excess Over Highest Single Agent (EHOSA) methods.
DNA Copy number data on the HER2 gene was collected for all breast cancer cell lines using the Affymetrix 500K chip (Affymetrix Inc, Sunnyvale, Calif.). Briefly DNA was extracted from each line, digested with the restriction enzyme Nsp or Sty, ligated to an adaptor and amplified by PCR. After PCR, DNA was fragmented, labeled, denatured, and hybridized to the Affymetrix 500K chip. Upon completion of hybridization, each assay was washed and stained. Image data were acquired. Similarly collected data from a panel 10 diploid non-tumorigenic lymphoblastic cell lines were used to calculate DNA copy number. All ‘SNP Chip’ images ('CEL files'), were extracted, read and normalized using the dChip software package (Lin et al. 2004. Bioinformatics. 20:1233-40). SNP-wise ‘copy-number ratios’ (log2 scale) were calculated for all cancer cell lines using the lymphoblastic reference panel and analyzed by circular binary segmentation to reduce noise (Olshen et al. 2004. Biostatistics. 5:557-72). Cell lines with log2 ratios of HER2>0.65 were considered HER2+.

Hep3B = assay: Cell growth inhibition assay, hepatocellular carcinoma cell line (Cell Titer Glo); format: cell-based; conditions: Homo sapiens, 72 h, 3 days
Method: as §1, §2, §3, §4, §5

PLC/RF/5 = assay: as above; format: cell-based; conditions: Homo sapiens, 72 h, 3 days
Method: as §1, §2, §3, §4, §5

SNU475 = assay: as above; format: cell-based; conditions: Homo sapiens, SNU-475, 72 h, 3 days
Method: as §1, §2, §3, §4, §5

HepG2 = assay: as above; format: cell-based; conditions: Homo sapiens, HepG2, 72 h, 3 days
Method: as §1, §2, §3, §4, §5

SNU423 = assay: as above; format: cell-based; conditions: Homo sapiens, SNU-423, 72 h, 3 days
Method: as §1, §2, §3, §4, §5

C3A = assay: as above; format: cell-based; conditions: Homo sapiens, 72 h, 3 days
Method: as §1, §2, §3, §4, §5

SNU398 = assay: as above; format: cell-based; conditions: Homo sapiens, SNU-398, 72 h, 3 days
Method: as §1, §2, §3, §4, §5

SNU387 = assay: as above; format: cell-based; conditions: Homo sapiens, SNU-387, 72 h, 3 days
Method: as §1, §2, §3, §4, §5

SNU182 = assay: as above; format: cell-based; conditions: Homo sapiens, SNU-182, 72 h, 3 days
Method: as §1, §2, §3, §4, §5

SNU449 = assay: as above; format: cell-based, human; conditions: 3 days
Method: as §1
Cells were seeded in a 96-well tissue culture plate (NUNC 136102) of RPMI medium containing 10% FBS at 500-2,000 cells per well. […] ATP levels were determined by adding Cell Titer Glo® (Promega) according to the manufacturer's protocol. Briefly, Cell Titer Glo® was added to each plate, incubated for 20 minutes then luminescent signal was read on the SpectraMax L plate reader with a 0.5 sec integration time. […]
Inhibition of cell growth was estimated after treatment with compound or combination of compounds for three days and comparing the signal to cells treated with vehicle (DMSO). Cell growth was calculated relative to vehicle (DMSO) treated control wells. […]
as §5

[1] = HGF + (2 ng/ml), read-out: Single agent IC50, Compound B
[2] = HGF −, read-out: Single agent IC50, Compound B
[3] = HGF + (2 ng/ml), read-out: Single agent IC50, Compound A
[4] = HGF −, read-out: Single agent IC50, Compound A

IC50 (HCC1569; read-out: Single agent IC50, Compound B): 76 ± 42 nM
IC50 (Hep3B; [1]): 57 ± 20 nM
IC50 (Hep3B; [2]): 28 ± 2 nM
IC50 (PLC/RF/5; PLC/RF/5, HGF + (2 ng/ml), read-out: Single agent IC50, Compound B): 15 ± 1 nM
IC50 (PLC/RF/5; PLC/RF/5, HGF −, read-out: Single agent IC50, Compound B): 18 ± 12 nM
IC50 (SNU475; SNU475, HGF + (2 ng/ml), read-out: Single agent IC50, Compound B): 39 ± 17 nM
IC50 (SNU475; SNU475, HGF −, read-out: Single agent IC50, Compound B): 50 ± 19 nM
IC50 (HepG2; HepG2, HGF + (2 ng/ml), read-out: Single agent IC50, Compound B): 9 ± 5 nM
IC50 (HepG2; HepG2, HGF −, read-out: Single agent IC50, Compound B): 9 ± 8 nM
IC50 (SNU423; SNU423, HGF + (2 ng/ml), read-out: Single agent IC50, Compound B): 21 ± 7 nM
IC50 (SNU423; SNU423, HGF −, read-out: Single agent IC50, Compound B): 23 ± 16 nM
IC50 (C3A; [1]): 13 ± 1 nM
IC50 (C3A; [2]): 13 ± 1 nM
IC50 (SNU398; SNU398, HGF + (2 ng/ml), read-out: Single agent IC50, Compound B): 83 ± 2 nM
IC50 (SNU398; SNU398, HGF −, read-out: Single agent IC50, Compound B): 98 ± 21 nM
IC50 (SNU387; SNU387, HGF + (2 ng/ml), read-out: Single agent IC50, Compound B): 71 ± 10 nM
IC50 (SNU387; SNU387, HGF −, read-out: Single agent IC50, Compound B): 103 ± 10 nM
IC50 (SNU182; SNU182, HGF + (2 ng/ml), read-out: Single agent IC50, Compound B): 17 ± 4 nM
IC50 (SNU182; SNU182, HGF −, read-out: Single agent IC50, Compound B): 17 ± 1 nM
IC50 (SNU449; Homo sapiens, SNU-449, 72 h, SNU449, HGF −, read-out: Single agent IC50, Compound B): 24 ± 5 nM
Compound: COc1ncc(-c2ccc3nccc(-c4ccnnc4)c3c2)cc1NS(=O)(=O)c1ccc(F)cc1F [Compound B, 2,4-difluoro-N-{2-(methyloxy)-5-[4-(4-pyridazinyl)-6-quinolinyl]-3-pyridinyl}benzenesulfonamide]

IC50 (HCC1569; read-out: Single agent IC50, Compound A): > 1000 nM
IC50 (Hep3B; [3]): 37 ± 8 nM
IC50 (Hep3B; [4]): 26 ± 8 nM
IC50 (PLC/RF/5; PLC/RF/5, HGF + (2 ng/ml), read-out: Single agent IC50, Compound A): 2870 ± 1560 nM
IC50 (PLC/RF/5; PLC/RF/5, HGF −, read-out: Single agent IC50, Compound A): 1600 ± 509 nM
IC50 (SNU475; SNU475, HGF + (2 ng/ml), read-out: Single agent IC50, Compound A): > 5000 nM
IC50 (SNU475; SNU475, HGF −, read-out: Single agent IC50, Compound A): > 5000 nM
IC50 (HepG2; HepG2, HGF + (2 ng/ml), read-out: Single agent IC50, Compound A): 3 ± 1 nM
IC50 (HepG2; HepG2, HGF −, read-out: Single agent IC50, Compound A): 1 nM
IC50 (SNU423; SNU423, HGF + (2 ng/ml), read-out: Single agent IC50, Compound A): 577 ± 569 nM
IC50 (SNU423; SNU423, HGF −, read-out: Single agent IC50, Compound A): 218 ± 130 nM
IC50 (C3A; [3]): 36 ± 11 nM
IC50 (C3A; [4]): 10 ± 3 nM
IC50 (SNU398; SNU398, HGF + (2 ng/ml), read-out: Single agent IC50, Compound A): > 5000 nM
IC50 (SNU398; SNU398, HGF −, read-out: Single agent IC50, Compound A): > 5000 nM
IC50 (SNU387; SNU387, HGF + (2 ng/ml), read-out: Single agent IC50, Compound A): 94 ± 21 nM
IC50 (SNU387; SNU387, HGF −, read-out: Single agent IC50, Compound A): 74 ± 46 nM
IC50 (SNU182; SNU182, HGF + (2 ng/ml), read-out: Single agent IC50, Compound A): 1280 ± 1220 nM
IC50 (SNU182; SNU182, HGF −, read-out: Single agent IC50, Compound A): 1760 ± 224 nM
IC50 (SNU449; Homo sapiens, SNU-449, 72 h, SNU449, HGF −, read-out: Single agent IC50, Compound A): > 5000 nM
IC50 (SNU449; SNU449, HGF + (2 ng/ml), read-out: Single agent IC50, Compound A): > 5000 nM
Compound: CC(=O)Nc1cccc(-n2c(=O)n(C3CC3)c(=O)c3c(Nc4ccc(I)cc4F)n(C)c(=O)c(C)c32)c1 [Compound A, N-{3-[3-cyclopropyl-5-[(2-fluoro-4-iodophenyl)amino]-6,8-dimethyl-2,4,7-trioxo-3,4,6,7-tetrahydropyrido[4,3-d]pyrimidin-1(2H)-yl]phenyl}acetamide]
